Test results from patent publication US9675662B2, “Compositions for inhibition of RNA polymerase I and methods of production and use thereof” (The Board of Regents of the University of Oklahoma, priority 2011, dated 2017).
“Also recorded” adds a separate entry of the source. Where two headings read alike, the source gives them in different places. Where no end group is shown, it is not given here. The star is where a group is joined. Biotin = O=C1N[C@H]2[C@H](CS[C@H]2CCCCC(=O)*)N1

Tests used:
N1S1 rat hepatoma cells = experiment: Growth of N1S1 hepatoma cells after peptide transduction; assay type: cell-based
Description: FIG. 14 illustrates the effects of TAT-22mer (labeled “STBY”) on the growth of N1S1 rat hepatoma cells.
FIG. 15 illustrates the effects of TAT-22mer (labeled “STBY”) on the growth of N1S1 rat hepatoma cells (fresh peptide added after 24 hours).
This effect was then tested […], i.e. with immortalized cells in tissue culture. There are several possible ways of introducing the desired peptide into cells. In a first experiment, ten amino acids, YGRKKEEQRR (SEQ ID NO:176), were added to the N-terminus of the 22mer peptide, […] (resulting in a sequence of […] (SEQ ID NO:175)); the ten amino acids were added to assist in transduction of the peptide into the cells. The TAT peptide is an NH2-terminal 11-amino acid protein transduction domain (PTD) from the human immunodeficiency virus (HIV) TAT protein that was first identified in 1988 by Green et al. This peptide and peptides like it are capable of transducing proteins across the cell membrane.
The effects of transducing the 22mer coupled to TAT peptide were then compared to TAT peptide alone. An aggressive chemically-induced hepatoma cell line (N1S1 cells) was used for these experiments.
(§1) When the sequence of the 22mer was examined, it was noted that it contains two cysteine residues that might form a disulfide bond and inhibit the activity of the peptide. To examine this question, the experiment previously carried out on the N1S1 cells was repeated using peptide that was dissolved in 0.1 mM […].

A431 cells = experiment: Growth of A431 cells plated at low density; assay type: cell-based; details: 72 hr
Description: FIG. 12 illustrates the effects of TAT-22mer on the growth of A431 cells plated at low density after 72 hr.
(§2) In these experiments, and in others described below, cell numbers were determined using the […], and the absorbance at 570 nm is presented instead of cell numbers.

[1] = system: rDNA transcription (RNA polymerase I); experiment: Cell-free rDNA transcription reaction (N1S1 nuclear extracts, rat rDNA promoter); assay type: biochemical; details: added in excess to transcription reaction
From the text: FIG. 6 illustrates squelching by excess Rpa43 or the peptide (22mer) that mediates the interaction between Rpa43 and Rrn3.
To test this model, recombinant Rpa43 was purified and added to cell free transcription reactions to determine if excess Rpa43 could inhibit transcription. The components added to this reaction included nuclear extracts of N1S1 cells (a rat tumor cell line), and recombinant DNA of the rat rDNA promoter and the purified, recombinant Rpa43 or purified synthetic peptides (FIG. 6). […] A similar series of experiments was then undertaken with synthetic peptides. The two peptides were based on the sequence of the region shown to be required for the interaction between Rrn3 and Rpa43 (FIG. 6, Panel B).

293T cells = experiment: Growth of 293T-based cell lines expressing doxycycline-inducible peptide; details: peptide expressed in cells grown in doxycycline; versus Ψ peptide
From the text: To confirm and extend these studies, cell lines were constructed that were based on 293T cells (Invitrogen, Carlsbad, Calif.), that expressed doxycycline-inducible 22mer or the random peptide (Ψ). […] N.B., there was an inhibition of growth.

WI38 cells = experiment: Growth of WI38 cells (MTT assay) and peptide uptake; assay type: cell-based; details: 48 hours
Description: FIG. 11 illustrates the effects of TAT-22mer on WI38 cells after 48 hours using the MTT assay.
as §2

NIH 3T3 cells = experiment: Growth of NIH 3T3 cells after 48 hours; assay type: cell-based; details: three plating densities, 40 and 60 μM
Description: FIG. 10 illustrates the effects of a TAT-tagged 22mer (TAT-22mer) composition of the presently disclosed inventive concept(s) on NIH 3T3 cells plated at three different densities after 48 hours.
However, it was possible that the same peptide would inhibit the growth of “normal” cells as well. To examine this possibility, TAT-tagged 22mer was added to the media of NIH 3T3 cells, and growth was measured after 48 hours.
as §2

[2] = system: P1798 mouse lymphosarcoma cells; experiment: Growth and viability (Trypan blue exclusion) of P1798 lymphosarcoma cells; assay type: cell-based
From the text: FIG. 16 illustrates the effect of TAT-22mer on P1798 mouse lymphosarcoma cells.
FIG. 17 contains micrographs of P1798 mouse lymphosarcoma cells treated with TAT-22mer (“STBY peptide”) at indicated doses. The cells were stained with trypan blue to determine viability.
FIG. 18 illustrates the effects of TAT-22mer (TAT-STBY) and TAT-STBY C-Mu on P1798 mouse lymphosarcoma cells.
FIG. 19 illustrates the effects of TAT-22mer (TAT-STBY) and TAT-STBY C-Mu on the viability of P1798 mouse lymphosarcoma cells. The same cells studied in the experiment presented in FIG. 18, were also stained with Trypan blue to determine viability. The viable cell counts at 10 and 24 hrs of treatment were too low to be considered reliable (*).
FIG. 20 illustrates the effects of TAT-22mer (TAT-STBY) and TAT-STBY C-Mu on the viability of P1798 mouse lymphosarcoma cells as analyzed in FIGS. 18 and 19.
FIG. 21 illustrates the effects of TAT-22mer (TAT-STBY) and TAT-STBY C-Mu on P1798 mouse lymphosarcoma cells. P1798 Cells were treated with TAT-STBY C-Mu for 26 hours and then stained with Trypan blue. […] The treated cells were concentrated 20× for photography.
FIG. 22 illustrates the kinetics of cell death following treatment with C-Mu peptide. […] Cells were harvested by centrifugation every two hours, and the numbers of viable cells were determined using the Trypan blue exclusion assay.
as §1
In fact, automated cell-cell counting was inaccurate due to the increased amount of dead cells and debris (FIGS. 19-20).

[3] = system: U937 human lymphoma cells; experiment: Growth of U937 cells; assay type: cell-based
Description: FIG. 13 illustrates the effects of TAT-22mer on the growth of U937 cells after 24 hours.
as §2

[4] = system: rDNA transcription in N1S1 cells; experiment: [3H]-uridine incorporation into newly synthesized RNA in transduced N1S1 cells; assay type: cell-based, rat; details: 40 μM, eight hours after transduction
Description: FIG. 7 illustrates that transduction of the 22mer inhibits rDNA transcription in tissue culture cells. Low density cultures of N1S1 cells were transduced with the TAT-22mer (40 μM). Eight hours after transduction, the cells were incubated with tritiated uridine to label newly synthesized RNA. Total RNA was precipitated with TCA and collected on glass fiber filters, and the radioactivity incorporated was measured by liquid scintillation counting.

Rrn3 = biological target: T1, Rrn3 (Homo sapiens, UniProt Q9NYV6); experiment: Binding of purified recombinant Rrn3 to streptavidin beads carrying biotinylated 22mer (pull-down, western blot); details: western blotting for Rrn3 (anti-FLAG)
T1 construct: made in house
Description: Immunoaffinity purified Rrn3 was incubated with streptavidin beads that had been preincubated with biotin-tagged 22mer or control extracts. After the beads were washed the proteins bound to the beads were analyzed by SDS-PAFE and western blotting for Rrn3 (anti-FLAG antibody).
In order to address that question, a biotinylated peptide made up of those 22 amino acids (biotin-[…] (SEQ ID NO:1)) was attached to streptavidin beads, and the ability to bind purified, recombinant Rrn3 was determined.

T1 sequence (Q9NYV6 whole entry, species assumed): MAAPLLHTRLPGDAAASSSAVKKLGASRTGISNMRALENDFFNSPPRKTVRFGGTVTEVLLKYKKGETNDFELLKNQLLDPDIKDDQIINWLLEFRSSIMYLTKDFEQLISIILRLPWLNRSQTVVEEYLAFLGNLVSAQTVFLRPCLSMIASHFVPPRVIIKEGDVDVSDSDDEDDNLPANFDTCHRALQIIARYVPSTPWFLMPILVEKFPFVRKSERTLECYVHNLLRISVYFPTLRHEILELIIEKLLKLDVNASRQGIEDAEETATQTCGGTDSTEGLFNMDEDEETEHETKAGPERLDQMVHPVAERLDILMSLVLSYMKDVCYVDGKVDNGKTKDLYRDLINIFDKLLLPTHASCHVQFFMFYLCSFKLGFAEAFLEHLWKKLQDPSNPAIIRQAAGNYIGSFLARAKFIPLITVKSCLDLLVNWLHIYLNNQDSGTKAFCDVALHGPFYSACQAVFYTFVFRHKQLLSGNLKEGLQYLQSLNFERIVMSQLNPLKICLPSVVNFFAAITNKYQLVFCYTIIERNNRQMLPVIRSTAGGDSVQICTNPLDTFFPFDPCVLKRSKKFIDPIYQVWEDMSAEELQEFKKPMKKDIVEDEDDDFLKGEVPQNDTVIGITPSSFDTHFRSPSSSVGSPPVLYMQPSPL

Substance | N1S1 cell growth / cell division (N1S1 rat hepatoma cells) | appearance of N1S1 cells (N1S1 rat hepatoma cells; 40 μM, after 48 hr) | rate of N1S1 cell accumulation (N1S1 rat hepatoma cells; 20 and 40 μM) | growth of A431 cells (A431 cells) | inhibition of cell-free rDNA transcription [1] | cell growth / rate of cell division (293T cells) | growth of WI38 cells (WI38 cells) | growth of 3T3 cells (NIH 3T3 cells) | growth of P1798 cells [2] | Trypan blue dye exclusion by P1798 cells ([2]; 40 μM) | response of P1798 cells at 40 micromolar ([2]; 40 micromolar, cells grown in a reducing medium) | number of viable P1798 cells ([2]; photomicrographs, Trypan blue) | N1S1 cell growth / cell division (N1S1 rat hepatoma cells; listed as STBY) | decrease in number of treated N1S1 cells (N1S1 rat hepatoma cells; peptide dissolved in 0.1 mM reducing agent (dithiothreitol), fresh peptide added after 24 hours) | growth of U937 cells [3] | growth of U937 cells at 80 μM ([3]; 80 μM, 24 hours) | inhibition of rDNA transcription ([4]; inferred from uridine incorporation) | inhibition of [3H]-uridine incorporation ([4]; low density N1S1 cultures) | binding of Rrn3 to bead-bound peptide (Rrn3) | binding of Rrn3 to bead-bound peptide (Rrn3; listed as biotin-tagged 22mer)
NKVSSSHIGCLVHGCFNASIPK (listed as Homo sapiens) [22mer, amino acids 137 to 158 of mouse Rpa43] | inhibits cell division; also recorded: significantly inhibited cell growth in a dose-dependent manner | appeared to be apoptotic | decreased rate of cell accumulation | inhibited the growth | inhibits transcription; also recorded: transcription was inhibited | inhibits cell growth; also recorded: significant decrease in the rate of cell division | minimal effect on the growth | no effects on the growth |  |  |  |  |  |  |  |  |  |  |  | 
YGRKKEEQRRNKVSSSHIGCLVHGCFNASIPK (1st ten amino acids are TAT peptide from HIV; last 22 amino acids are from Homo sapiens) [TAT-22mer, 22mer with ten TAT amino acids added to the N-terminus] | cell growth was inhibited |  |  |  |  |  | minimal effect on cell accumulation |  | very significant effects on the growth | did not exclude the dye | significant response | significantly reduced the number of viable cells | very significant effects on the growth | 90% | very significant effects on the growth | significant inhibition of cell growth | ~100% | 70% |  | 
Biotin-NKVSSSHIGCLVHGCFNASIPK (cysteine pairing not given here) [biotinylated 22mer] |  |  |  |  |  |  |  |  |  |  |  |  |  |  |  |  |  |  | Rrn3 bound to beads | sufficient to mediate interaction between Rpa43 and Rrn3
